Data on seven compounds can be found in patent US10221215B2, “Hydrogen bond surrogate macrocycles as modulators of Ras” (New York University, priority 2011, dated 2019).

This data set in a line: Solubility of peptides and HBS helices. Type of data set: physicochemical. On the procedure:
Design of Ras/Sos inhibitors was performed starting with the wild-type Sos929-944 α-H sequence. Additional modifications were introduced in order to improve the solubility of the HBS peptides. Charged residues were introduced at positions not involved in Ras binding. Computational alanine scanning was performed on two separate crystal structures (PDB codes: 1NVW and 1BKD) of the Ras/Sos complex to determine other important binding residues in the α-H helix that may be incorporated in the peptide mimetics. Additionally, non-essential β-branched residues (including threonine) in the wild-type α-H sequence were replaced with suitable residues to afford peptides with higher helical content (Table 1), as it was hypothesized that such modifications would improve α-helicity.

Each structure is given as a SMILES string.

In the case of `CC[C@H](C)[C@H](NC(=O)CN1CC=CCCC(=O)N[C@@H](Cc2ccccc2)C(=O)N[C@@H](CCC(=O)O)C1=O)C(=O)N[C@@H](Cc1ccc(O)cc1)C(=O)N[C@@H](CCCNC(=N)N)C(=O)N[C@H](C(=O)N[C@@H](CC(=O)O)C(=O)N[C@H](C(=O)N[C@@H](CC(C)C)C(=O)N[C@@H](CCCNC(=N)N)C(=O)N[C@H](C(=O)N[C@@H](CCC(=O)O)C(=O)N[C@@H](CCC(=O)O)C(=O)NCC(=O)N[C@@H](CC(N)=O)C(N)=O)[C@@H](C)O)[C@@H](C)CC)[C@@H](C)O` [HBS 1], the Solubility entry was “partially”. The result for `CC[C@H](C)[C@H](NC(=O)CN1CC=CCCC(=O)N[C@@H](Cc2ccccc2)C(=O)N[C@@H](CCC(=O)O)C1=O)C(=O)N[C@@H](Cc1ccc(O)cc1)C(=O)N[C@@H](CCCNC(=N)N)C(=O)N[C@H](C(=O)N[C@@H](CCC(=O)O)C(=O)N[C@@H](CC(C)C)C(=O)N[C@@H](CC(C)C)C(=O)N[C@@H](CCCCN)C(=O)N[C@@H](C)C(=O)N[C@@H](CCC(=O)O)C(=O)N[C@@H](CCC(=O)O)C(=O)N[C@@H](C)C(=O)N[C@@H](CC(N)=O)C(N)=O)[C@@H](C)O` [HBS 6] reads “soluble”; that for `CC[C@H](C)[C@H](NC(=O)CN1CC=CCCC(=O)N[C@@H](Cc2ccccc2)C(=O)N[C@@H](CCC(=O)O)C1=O)C(=O)N[C@@H](Cc1ccc(O)cc1)C(=O)N[C@@H](CCCNC(=N)N)C(=O)N[C@@H](CC(C)C)C(=O)N[C@@H](CCC(=O)O)C(=O)N[C@@H](CC(C)C)C(=O)N[C@@H](CC(C)C)C(=O)N[C@@H](CCCCN)C(=O)N[C@@H](C)C(=O)N[C@@H](CCC(=O)O)C(=O)N[C@@H](CCC(=O)O)C(=O)N[C@@H](C)C(=O)N[C@@H](CC(N)=O)C(N)=O` [HBS 7], “soluble”; that for `CC[C@H](C)[C@H](NC(=O)CN1CC=CCCC(=O)N[C@@H](C)C(=O)N[C@@H](CCC(=O)O)C1=O)C(=O)N[C@@H](Cc1ccc(O)cc1)C(=O)N[C@@H](CCCNC(=N)N)C(=O)N[C@@H](CC(C)C)C(=O)N[C@@H](CCC(=O)O)C(=O)N[C@@H](CC(C)C)C(=O)N[C@@H](CC(C)C)C(=O)N[C@@H](CCCCN)C(=O)N[C@@H](C)C(=O)N[C@@H](CCC(=O)O)C(=O)N[C@@H](C)C(=O)N[C@@H](C)C(=O)N[C@@H](C)C(N)=O` [HBS 7^mut], “soluble”. Take `CC[C@H](C)[C@H](NC(=O)CN1CC=CCCC(=O)N[C@@H](Cc2ccccc2)C(=O)N[C@@H](CCC(=O)O)C1=O)C(=O)N[C@@H](Cc1ccc(O)cc1)C(=O)N[C@@H](CCCNC(=N)N)C(=O)N[C@@H](CC(C)C)C(=O)N[C@@H](CCC(=O)O)C(=O)N[C@@H](CC(C)C)C(=O)N[C@@H](CC(C)C)C(=O)N[C@@H](CCCCN)C(N)=O` [HBS 8]: the Solubility result is on record as “soluble”. With `CC(C)C[C@H](NC(=O)CN1CC=CCCC(=O)N[C@@H](Cc2ccccc2)C(=O)N[C@@H](CCC(=O)O)C1=O)C(=O)N[C@@H](CC(C)C)C(=O)N[C@@H](CCCNC(=N)N)C(=O)N[C@@H](CC(C)C)C(=O)N[C@@H](Cc1c[nH]c2ccccc12)C(=O)N[C@@H](CC(C)C)C(=O)N[C@@H](CCCNC(=N)N)C(=O)N[C@@H](CCCCN)C(=O)NC(C)(C)C(=O)N[C@@H](CCC(=O)O)C(=O)N[C@@H](CCC(=O)O)C(=O)N[C@@H](C)C(=O)N[C@@H](CC(N)=O)C(N)=O` [HBS 9], the Solubility entry is given as “soluble”.

Turning to `CC(C)C[C@H](NC(=O)CN1CC=CCCC(=O)N[C@@H](Cc2ccccc2)C(=O)N[C@@H](CCC(=O)O)C1=O)C(=O)N[C@@H](CC(C)C)C(=O)N[C@@H](CCCNC(=N)N)C(=O)N[C@@H](CC(C)C)C(=O)N[C@@H](Cc1c[nH]c2ccccc12)C(=O)N[C@@H](CC(C)C)C(=O)N[C@@H](CCCNC(=N)N)C(=O)N[C@@H](CCCCN)C(=O)NC(C)(C)C(=O)N[C@@H](CCC(=O)O)C(=O)N[C@@H](CCC(=O)O)C(=O)NC(C)(C)C(=O)N[C@@H](CC(N)=O)C(N)=O` [HBS 10], the Solubility entry was “soluble”.
